Patent US20240166702A1, “COMPOSITIONS AND METHODS FOR TREATING BREAST CANCER” (Arizona Board of Regents on Behalf of The University of …, priority 2021, published 2024)

Columns and labels:
[1] = system: A549 lung cancer line with wildtype EGFR; assay: MTT cell viability assay in A549 cells; format: cell-based; conditions: 3 days
[2] = system: WAP-TGFα tumors; assay: Immune profiling FACS analysis of WAP-TGFα tumors; format: in vivo, mouse; conditions: 3 treated tumors; preliminary FACS
Protocol: Preliminary immune profiling FACS analysis performed with the markers described in Example 1.
To begin to evaluate how these changes indicated by NanoString represented the immune microenvironment of these tumors, Immune Profiling was performed. […] When tumors had regressed to ˜100 mm^3 (after 1-2 weeks of treatment), tumor were excised, treated with collagenase and analyzed by FACS, using a 17-antibody panel to determine cell types present. Data was analyzed by first selecting for CD45+ cells to isolate leukocytes, then further gated based on markers specific to cells of both the adaptive and innate immune system. This preliminary analysis was done with 3 cSNX1.3-treated tumors, and the internal positive control of one spleen. […]
Immune Profiling: Tissues are digested and analyzed by FACS for the following immune markers: CD45 (lymphocytes), CD4 (helper T cells) CD3 (Pan T cell), CD25 (Activated T cells), CD8a (cytotoxic T cells), Ly6G (G-Myeloid Derived Suppressor Cells (MDSC), CD11 b (MDSC), Ly6C (M-M DSC), CD11C (Dendritic Cells), F4/80 (Macrophages), Granzyme B (Natural Killer (NK) and CD8 T cells), Arginase 1 (MDSC), Perforin (NK and CD8 Tcells), iNos (macrophages), TNFα (pro inflammatory cytokine), INFy (pro inflammatory cytokine), FoxP3 (Treg). The samples are run on a Cytek Aurora full spectrum flow cytometer and are optimized for the mouse tissues (FIG. 10). […]

[3] = system: MCF10A cells; format: cell-based
[4] = system: WAP-TGFα tumors; assay: Anti-NKp46 antibody analysis of WAP-TGFα tumors for NK cells; format: in vivo, mouse; conditions: anti-NKp46 antibodies
Protocol: C. WAP-TGFα tumors treated with either SNX1.3 or cPTD4 were analyzed for NK cells using an anti-NKp46 antibody. Inset is 20×.
In addition to bioinformatics identification of CTLs in these tumors, similar analysis implicated recruitment of NK cells as well (FIG. 9). As a part of the innate immune system, NK cells should only be recruited if a change has occurred to display NK-activating antigens. While there are many such antigens expressed under a variety of immune modulation conditions, some are highly associated with activation of NK cells against cancers, such as ULBP2/3 or MICA/MICB32.

[5] = system: pAkt and dpERK; assay: EGF-dependent Akt and ERK activation in MDA-MB-468 cells; format: cell-based, human; conditions: MDA-MB-468, EGF stimulated
[6] = system: MDA-MB-468 cells with reduced EGFR; assay: MTT viability in MDA-MB-468 cells with shRNA knock down of EGFR; format: cell-based, human; conditions: shRNA to the 3′UTR of EGFR, 5 days IPTG, 3 days peptide, MTT assay
Protocol: B. MDA-MD-468 cells were transduced with an IPTG inducible shEGFR targeted against the 3′ UTR of EGFR. These cells were incubated with IPTG for the indicated number of days and lysates were generated to confirm knock down of EGFR. C. In tandem with B., cells were plated and incubated +/−IPTG for 2 days prior to drug treatment. […] After 5 days of IPTG and 3 days of peptide treatment viability was measured using an MTT assay.
No effect on CHO cells that lack EGFR expression was observed.

[7] = system: WAP-TGFα tumors; assay: Histology and protein lysate analysis of treated WAP-TGFα tumors; format: in vivo, mouse
Source text: Mice were bred continuously to induce transgene expression and palpated weekly for tumor formation. […] A. Changes in tumor size from entry into study until end of study are shown for each individual tumor, (*) indicate tumors that entered the study at size greater than 500 mm^3, all other tumors entered the study at ˜100 mm^3. B. a Kaplan-Meier survival curve was generated showing when mice were sacrificed by either reaching tumor burden (2000 mm^3) or the end of the study (p=0.0002). C. Upon sacrifice tumors were harvested and fixed in 10% formalin and embedded in paraffin. Slides were stained with hematoxylin and eosin and imaged at 20×. D. Protein lysates were generated from tumors upon sacrifice and probed for the indicated proteins.
A. Tumors (n=6 each treatment) from WAP-TGF mice as described in FIG. 1 were embedded and analyzed by NanoString. […] C. Tumors were dissected, lysed, and analyzed for apoptosis by probing for cleaved PARP and PDL1 expression.
At the end of the study, mice were sacrificed and tissues were collected and fixed in 10% buffered formalin or homogenized in tissue lysis buffer. Tissues were sectioned and evaluated for changes to tissue morphology in response to peptide treatment (FIG. 3C). […] Representative tumors from the PARP-cleavage positive (cSNX1.3-treated) and negative (cPTD4-treated) are shown (FIG. 3C).
Due to the increased leukocyte infiltration identified by histology of cSNX1.3-treated WAP-TGFα mice, NanoString analysis was performed using a panel that identifies alterations in immune regulators through localized analysis of transcript expression (PanCancer IO 360 Panel). […] These include several immune/inflammatory genes (such as CD2, TLR, CD28, H2-M3, Ly6C1, cytokines, and chemokines) as well as genes that could impact the metastatic potential of the microenvironment (including collagen 11A1 and MM P12). NanoString bioinformatics analysis further identified that these changes could be due to an increase in Cytotoxic T lymphocytes (CTLs) in cSNX1.3-treated samples compared to PTD4 (FIG. 8B). […] Therefore, tumor lysates were prepared and evaluated for apoptosis and a loss of the negative immune checkpoint receptor PDL1 (FIG. 8C). […] These changes could indicate an alteration from an immune-suppressive to an immune-surveilling microenvironment.

CC[C@H](C)[C@H](NC(=O)[C@@H](NC(=O)[C@H](Cc1c[nH]cn1)NC(=O)[C@H](CC(N)=O)NC(=O)[C@H](CCCCN)NC(=O)[C@H](C)NC(=O)[C@H](CCCNC(=N)N)NC(=O)[C@H](C)NC(=O)[C@H](CCC(N)=O)NC(=O)[C@H](CCCNC(=N)N)NC(=O)[C@H](C)NC(=O)[C@H](C)NC(=O)[C@H](C)NC(=O)[C@H](CCCNC(=N)N)NC(=O)[C@H](C)NC(=O)[C@H](Cc1ccc(O)cc1)NC(C)=O)C(C)C)C(=O)N[C@@H](CCCCN)C(=O)N[C@@H](Cc1ccc(O)cc1)C(=O)N[C@@H](CC(C)C)C(=O)N[C@@H](CCC(=O)O)C(=O)N[C@H](C(=O)N[C@@H](CC(C)C)C(=O)N[C@@H](CC(C)C)C(=O)N[C@@H](Cc1ccc(O)cc1)C(=O)N[C@@H](CO)C(=O)N[C@@H](CCC(N)=O)C(=O)N[C@@H](CCC(N)=O)C(=O)N[C@@H](CCC(N)=O)C(=O)N[C@@H](CC(C)C)C(=O)N[C@@H](C)C(=O)N[C@@H](CCCCN)C(=O)N[C@@H](Cc1ccc(O)cc1)C(=O)N[C@@H](Cc1c[nH]c2ccccc12)C(=O)N[C@@H](CCC(=O)O)C(=O)N[C@@H](C)C(=O)N[C@@H](Cc1ccccc1)C(=O)N[C@@H](CC(C)C)C(N)=O)[C@@H](C)O [cSNX1.3]
inhibition of cell survival, compared with Sapitinib [1]: more effective than Sapitinib
CTLs in tumors [2]: Abundant
M1 macrophages over M2 macrophages (M1/M2 ratio) [2]: high and increase
impact on normal immortalized cells [3]: almost no impact
NK cell infiltration into tumors [4]: Significant NK cell infiltration
immediate Akt or ERK activation ([5]; 15′): no impact
pAkt and dpERK activation, late ([5]; after an hour (60′)): suppressed
efficacy in cells with reduced EGFR [6]: lacked significant efficacy
changes to tissue architecture in the normal mammary gland ([7]; fixed tissue sections at end of study): No changes
leukocyte infiltration of tumors ([7]; identified by histology): increased
overall PDL1 expression in tumors ([7]; tumor lysates): decrease
cleaved PARP / apoptosis in treated tumors ([7]; tumor protein lysates at sacrifice): significant increase
